Molecular target: Tyrosine-protein kinase BTK (Homo sapiens, UniProt Q06187)
Experiment: Btk Kinase Assay
Conditions: pH 7.5; 23 °C
From the text: Biochemical assay using Lanthascreen (human, full-lenght, C-terminal v5-His6 expressed in Sf9 cell) assay from Invitrogen.

Tyrosine-protein kinase BTK, sequence (Q06187 whole entry): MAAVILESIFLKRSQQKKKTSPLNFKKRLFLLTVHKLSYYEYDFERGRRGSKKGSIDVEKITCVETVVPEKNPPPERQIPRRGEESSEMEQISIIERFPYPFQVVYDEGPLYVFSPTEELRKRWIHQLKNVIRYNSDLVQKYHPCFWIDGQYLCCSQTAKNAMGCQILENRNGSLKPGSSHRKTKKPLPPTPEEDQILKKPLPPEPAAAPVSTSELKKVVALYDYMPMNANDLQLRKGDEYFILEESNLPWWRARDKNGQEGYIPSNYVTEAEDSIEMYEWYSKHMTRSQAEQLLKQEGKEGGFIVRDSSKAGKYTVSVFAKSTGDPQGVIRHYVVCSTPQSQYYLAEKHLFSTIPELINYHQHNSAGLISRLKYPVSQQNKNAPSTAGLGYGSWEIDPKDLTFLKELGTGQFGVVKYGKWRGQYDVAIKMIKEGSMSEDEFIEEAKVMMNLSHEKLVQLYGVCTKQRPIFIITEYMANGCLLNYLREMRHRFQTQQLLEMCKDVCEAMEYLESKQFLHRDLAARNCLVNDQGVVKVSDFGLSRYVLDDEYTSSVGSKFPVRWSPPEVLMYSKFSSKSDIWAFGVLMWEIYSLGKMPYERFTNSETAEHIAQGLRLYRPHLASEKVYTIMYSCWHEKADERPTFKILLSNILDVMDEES

| SMILES | IC50 [µM] |
| --- | --- |
| Cc1c(N)cccc1-c1cn(C)c(=O)c(Nc2ccc(C(=O)N3CCOCC3)cc2)n1 [5-(3-Amino-2-methylphenyl)-1-methyl-3-((4-(morpholine-4-carbonyl)phenyl)amino)pyrazin-2(1H)-one, 3] | 5.44 |
| Cc1c(NC(=O)c2cccc(C(C)(C)C)c2)cccc1-c1cn(C)c(=O)c(Nc2ccc(C(=O)N3CCOCC3)cc2)n1 [3-(tert-Butyl)-N-(2-methyl-3-(4-methyl-6-((4-(morpholine-4-carbonyl)phenyl)amino)-5-oxo-4,5-dihydropyrazin-2-yl)phenyl)benzamide, 6] | 3.14 |
| Cc1c(NCc2ccc(C(C)(C)C)cc2)cccc1-c1cn(C)c(=O)c(Nc2ccc(C(=O)N3CCOCC3)cc2)n1 [5-(3-((4-(tert-Butyl)benzyl)amino)-2-methylphenyl)-1-methyl-3-((4-(morpholine-4-carbonyl)phenyl)amino)pyrazin-2(1H)-one, 5] | 9.06 |

The remaining lines, values ahead:

| IC50 [µM] | SMILES |
| --- | --- |
| 2.69 | CC(=O)Nc1cccc(-c2cn(C)c(=O)c(Nc3ccc(C(=O)N4CCOCC4)cc3)n2)c1C [CID46942382] |
| 0.65 | Cc1c(NC(=O)c2ccc(C(C)(C)C)nc2)cccc1-c1cn(C)c(=O)c(Nc2ccc(C(=O)N3CCOCC3)cc2)n1 [6-(tert-Butyl)-N-(2-methyl-3-(4-methyl-6-((4-(morpholine-4-carbonyl)phenyl)amino)-5-oxo-4,5-dihydropyrazin-2-yl)phenyl)nicotinamide, 7] |

— BindingDB's records for doi:10.1038/nchembio.481 (CGI Pharmaceuticals, 2011)
